According to EP4714948A1, “COMPOUND USED FOR EGFR PROTEIN DEGRADATION, AND USE THEREOF” (TYK Medicines, Inc., priority 2023, dated 2024):
pIC50: −log10 of the molar value.

Key:
[1] = target: EGFR in BAF3-LTC (Baf3-L858R-T780M-C797S) (Homo sapiens, UniProt P00533, C797S/L858R/T790M); assay: EGFR PROTAC HTRF experiment (total EGFR degradation); assay type: cell-based; settings: BAF3-LTC cells, 16 hours incubation
[2] = target: EGFR in BAF3-DTC (Baf3-19del-T780M-C797S) (Homo sapiens, UniProt P00533, C797S/DEL746-750/T790M); assay: as above; assay type: cell-based; settings: BAF3-DTC cells, 16 hours incubation
Sequence of EGFR in BAF3-DTC (Baf3-19del-T780M-C797S) (P00533 with tags, fused parts or gaps DEL746-750/T790M/C797S): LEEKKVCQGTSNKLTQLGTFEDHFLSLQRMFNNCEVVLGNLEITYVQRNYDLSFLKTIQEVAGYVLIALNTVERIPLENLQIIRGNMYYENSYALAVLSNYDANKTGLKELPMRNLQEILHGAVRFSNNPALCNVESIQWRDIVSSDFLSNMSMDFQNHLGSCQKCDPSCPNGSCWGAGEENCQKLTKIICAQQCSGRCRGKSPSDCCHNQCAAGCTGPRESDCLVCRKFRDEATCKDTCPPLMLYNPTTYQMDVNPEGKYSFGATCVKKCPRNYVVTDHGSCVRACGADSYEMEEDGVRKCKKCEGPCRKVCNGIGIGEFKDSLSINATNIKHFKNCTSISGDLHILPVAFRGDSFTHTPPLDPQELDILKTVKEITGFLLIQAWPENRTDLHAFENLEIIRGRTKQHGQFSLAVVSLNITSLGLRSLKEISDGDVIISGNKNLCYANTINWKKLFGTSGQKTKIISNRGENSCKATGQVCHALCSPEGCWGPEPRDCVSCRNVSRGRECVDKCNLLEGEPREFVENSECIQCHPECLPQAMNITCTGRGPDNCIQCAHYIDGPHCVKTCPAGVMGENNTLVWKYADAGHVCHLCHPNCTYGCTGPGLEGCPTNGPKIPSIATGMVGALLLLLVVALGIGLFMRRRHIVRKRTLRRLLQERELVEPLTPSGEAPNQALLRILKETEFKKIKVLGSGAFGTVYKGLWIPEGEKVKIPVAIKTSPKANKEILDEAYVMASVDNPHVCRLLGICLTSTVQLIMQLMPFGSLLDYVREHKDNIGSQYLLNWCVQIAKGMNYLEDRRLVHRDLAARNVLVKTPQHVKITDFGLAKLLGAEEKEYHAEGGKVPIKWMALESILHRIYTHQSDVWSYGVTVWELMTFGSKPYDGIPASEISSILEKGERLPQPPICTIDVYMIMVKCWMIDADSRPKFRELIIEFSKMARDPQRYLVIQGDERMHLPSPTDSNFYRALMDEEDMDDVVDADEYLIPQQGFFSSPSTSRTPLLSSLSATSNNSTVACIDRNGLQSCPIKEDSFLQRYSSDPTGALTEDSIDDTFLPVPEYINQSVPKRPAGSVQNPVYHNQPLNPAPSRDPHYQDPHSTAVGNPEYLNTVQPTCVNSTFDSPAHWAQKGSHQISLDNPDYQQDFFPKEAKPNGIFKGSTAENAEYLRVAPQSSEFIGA

H1975 = assay: Cell antiproliferative assay (CTG, 72 h); assay type: cell-based; settings: Homo sapiens, NCI-H1975, H1975 (EGFR T790M/L858R)
Procedure: (§1) H1975 has EGFR T790M/L858R dual mutation, PC-9 has EGFR exon 19 deletion mutation, and HCC827 has exon 19 deletion mutation. CellCounting Lite 2.0, Trypsin EDTA, 37 °C CO2 incubator, cell counter, EnVision Serial No.1050454.
(§2) • (A) Trypsin EDTA was used to digest log-phase cells, medium was added to terminate the digestion reaction, and a cell suspension was prepared by blowing and mixing with a pipette. • (B) Cell concentration was determined using Vi-cell, and a suspension of 15,000-25,000 cells per milliliter was made depending on the purpose of the experiment and the characteristics of the cells. • (C) After the cell suspension was ready, it was gently mixed and each well was added with 100µL so that the cell density to be tested was 1,500- 2,500 per well.
(§3) • A) About 2 mg of compound was weighed, and the volume of DMSO required was calculated according to the formula: compound mass (mg)*compound purity (%)/compound molecular weight*1000. • (B) The inoculated cell culture plates were incubated in an incubator. About 24 hours later, compounds were added at gradient concentrations. • (C) 10mM of compound reservoir solution was diluted to […] with medium, and […] of the compound solution was added sequentially to the second column of the deep-well plate, and […] of medium containing 0.5% DMSO was added to the third to eleventh columns. • D) Gradient dilution: 125 µl of solution was pipetted from the second column and added to the third column, after mixing; another 125 µl of solution was pipetted from the third column and added to the fourth column, and the operation was repeated until the tenth column. • (E) 25 µl of compound was pipetted from the deep-well plate into a 96-well culture plate using a multichannel pipette, and each compound was run in triplicate on the 96-well plate. A 1:4 concentration gradient was established on the 96-well plate, with a final highest concentration of 10,000 nM.
(§4) • (A) 96-well plates were incubated in an incubator for 72 h. The effect of the compounds was observed under an inverted microscope. • (B) 25 µl of CTG solution was added to each well. The plate was incubated on a shaker for 10 minutes and the OD value of each well was read.
(§5) The survival rate ( % Cell Viability) was calculated using the following formula: %Cell Viability = 100% × (Lum_Sample−Lum_LC)/(Lum_HC−Lum_LC) [formula] • Lum_HC: Cell reading of 0.1% DMSO control group • Lum_Sample: Cell readings of compound addition group • Lum_LC: Reading of blank medium • IC50 values were obtained by curve fitting using GraphPad Prism 8 software.

HCC827 = assay: Cell antiproliferative assay (CTG, 72 h); assay type: cell-based; settings: Homo sapiens, HCC827 (exon 19 deletion)
Procedure: as §1, §2, §3, §4, §5

PC-9 = assay: Cell antiproliferative assay (CTG, 72 h); assay type: cell-based; settings: Homo sapiens, PC-9 (EGFR exon 19 deletion)
Procedure: as §1, §2, §3, §4, §5

[3] = Pharmacokinetic test on male SD rats; assay type: in vivo; settings: gavage (p.o.), 10 mg/kg, plasma; for AUC(0-inf) / AUC(0-t) / Cmax / MRT last / Tmax: rat, po
Procedure: Healthy adult SD rats, male, a total of 3, 6-8 weeks old; Weighing 200-300 grams.
EDTA-Na2 anticoagulant: 11.2 g of EDTA-Na2 was weighted and placed into a reagent bottle. 100 mL of physiological saline was added and the mixture was shaken until completely dissolved. After preparation, the solution was aliquoted into 1.5 mL centrifuge tubes, each containing approximately 20 uL, for use in whole blood sample collection.
Approximately 10 mg of the test sample was accurately weighed. DMSO accounting for 10% of the total volume was added to dissolve the sample. Subsequently, 0.5% MC solvent accounting for 90% of the total volume was slowly added while stirring. The mixture was sonicated and vortexed evenly, and a visually homogeneous preparation solution was obtained, with a concentration of 1 mg/mL. This solution should be freshly prepared immediately before use.
0.2 mL of the sample was pipetted into a 1.5 mL centrifuge tube and stored at -80°C for concentration analysis of the dosing solution.
Animals were kept in rat cages and fasted for no less than 10 hours on the day before the experiment, but were allowed to drink water. The animals were individually weighed and marked on their tails. Prior to dosing, blank blood samples were collected from each animal via the tail vein.
• Administration route: gavage (p.o.) • Dosage concentration: 1mg/ml • Dosage: 10 mg/kg • Dosage volume: 10 mL/kg
Operation process: The rat was grasped with a left hand protected by a bite-resistant glove and held in an upright position. The gavage needle was inserted through the mouth and advanced towards the pharynx. The needle was advanced gently, ensuring no significant resistance was felt. The drug was then injected into the stomach.
At 0.5 h, 1 h, 2 h, 4 h, 6 h, 8 h, 12 h, and 24 h post-dosing, 0.1-0.2 mL of whole blood was collected from each test animal into EDTA-Na2 anticoagulant tubes. The tubes were mixed by inverting 3-4 times. The samples were centrifuged at 2000 × g and 4 °C for 5 minutes. The upper plasma layer was to separated, promptly transferred to -80 °C for storage until analysis. The blood was collected via tail vein.
A quantitative detection method for the test compound was established using a Shimadzu liquid chromatography system and a Triple Quad™ 6500+ AB mass spectrometry (MS) system. This method was used to analyze the concentration of the parent drug in plasma. The variation of the analysis results was controlled using quality control (QC) samples, and the accuracy of the QC samples was required to be within the range of 80%-120%.
The main pharmacokinetic parameters were calculated using the non-compartmental model (NCA) with the WinNonlin Phoenix software. These parameters include: area under the concentration-time curve (AUC(0-t) and AUC(0-∞)), elimination half-life (T1/2), maximum plasma concentration (Cmax), and time to reach maximum plasma concentration (Tmax), etc.

Sequence of EGFR in BAF3-LTC (Baf3-L858R-T780M-C797S) (P00533 25-1210 T790M/C797S/L858R): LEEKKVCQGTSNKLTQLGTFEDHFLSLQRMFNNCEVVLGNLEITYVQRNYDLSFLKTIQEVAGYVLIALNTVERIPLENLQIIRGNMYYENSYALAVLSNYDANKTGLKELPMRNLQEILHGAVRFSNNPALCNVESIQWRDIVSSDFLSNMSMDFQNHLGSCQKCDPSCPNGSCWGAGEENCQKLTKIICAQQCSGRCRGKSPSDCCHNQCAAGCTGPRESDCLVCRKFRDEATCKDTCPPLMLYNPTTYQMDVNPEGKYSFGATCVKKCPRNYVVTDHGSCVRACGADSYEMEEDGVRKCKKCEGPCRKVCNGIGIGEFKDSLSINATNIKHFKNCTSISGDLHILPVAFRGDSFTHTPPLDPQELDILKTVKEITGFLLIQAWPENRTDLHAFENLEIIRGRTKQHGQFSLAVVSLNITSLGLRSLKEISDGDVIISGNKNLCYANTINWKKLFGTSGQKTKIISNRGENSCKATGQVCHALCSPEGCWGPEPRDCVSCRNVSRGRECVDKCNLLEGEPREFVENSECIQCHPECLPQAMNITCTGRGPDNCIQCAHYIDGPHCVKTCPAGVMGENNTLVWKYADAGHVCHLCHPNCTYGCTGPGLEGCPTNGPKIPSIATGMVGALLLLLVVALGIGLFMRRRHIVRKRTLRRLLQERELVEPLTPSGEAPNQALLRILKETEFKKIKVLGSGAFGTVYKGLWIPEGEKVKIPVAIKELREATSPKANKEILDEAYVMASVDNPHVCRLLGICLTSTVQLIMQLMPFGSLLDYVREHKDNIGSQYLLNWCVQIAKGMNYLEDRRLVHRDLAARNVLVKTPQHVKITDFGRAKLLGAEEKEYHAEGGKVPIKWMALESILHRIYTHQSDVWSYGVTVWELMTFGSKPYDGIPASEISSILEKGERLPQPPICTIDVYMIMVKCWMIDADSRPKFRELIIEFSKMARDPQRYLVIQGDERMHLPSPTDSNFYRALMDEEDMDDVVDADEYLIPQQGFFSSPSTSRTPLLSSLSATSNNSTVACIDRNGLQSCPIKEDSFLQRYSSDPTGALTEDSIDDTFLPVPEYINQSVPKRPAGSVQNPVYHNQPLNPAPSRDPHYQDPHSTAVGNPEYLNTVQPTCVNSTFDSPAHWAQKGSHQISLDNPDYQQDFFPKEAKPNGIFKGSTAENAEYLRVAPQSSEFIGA

| Structure (SMILES) | DC50 [1] [µM] | Dmax [1] [%] | DC50 [2] [µM] | Dmax [2] [%] | pIC50 (H1975) | pIC50 (HCC827) | pIC50 (PC-9) | HL_ [3] [h] | AUC(0-inf) [3] [ng·h/mL] | AUC(0-t) [3] [ng·h/mL] | Cmax [3] [ng/mL] | MRT last [3] [h] | Tmax [3] [h] |
| --- | --- | --- | --- | --- | --- | --- | --- | --- | --- | --- | --- | --- | --- |
| CCc1cc(Nc2ncc(Cl)c(Nc3ccccc3C(=O)NC)n2)c(OC)cc1N1CCN(C(=O)CN2CCC(c3c(F)cc(NC4CCC(=O)NC4=O)cc3F)CC2)CC1 (centres unmarked) [Compound T-068] | 0.01 to 0.1 | 70 to 100 | 0.01 to 0.1 | 70 to 100 | – | – | – | – | – | – | – | – | – |
| CNC(=O)c1ccccc1Nc1nc(Nc2cc(C)c(N3CCN(C(=O)CN4CCC(c5ccc6c(N7CCC(=O)NC7=O)nn(C)c6c5)C(F)(F)C4)CC3)cc2OC)ncc1Cl (centres unmarked) [Compound T-049] | – | – | – | – | > 8.00 | 7.00 to 8.00 | 6.00 to 7.00 | – | – | – | – | – | – |
| CCc1cc(Nc2ncc(Cl)c(Nc3ccccc3C(=O)NC)n2)c(OC)cc1N1CC2CCC(C1)N2C(=O)CN1CCC(c2ccc(NC3CCC(=O)NC3=O)cc2)CC1 (centres unmarked) [Compound T-109] | 0.01 to 0.1 | 50 to 70 | 0.01 to 0.1 | 50 to 70 | 7.00 to 8.00 | 7.00 to 8.00 | 7.00 to 8.00 | – | – | – | – | – | – |
| CCc1cc(Nc2ncc(Br)c(Nc3ccccc3C(=O)NC)n2)c(OC)cc1N1CCN(C(=O)CN2CCC(c3ccc4c(N5CCC(=O)NC5=O)nn(C)c4c3)C(F)(F)C2)CC1 (centres unmarked) [Compound T-014] | ≤ 0.01 | 70 to 100 | ≤ 0.01 | 70 to 100 | – | – | – | 3.37 | 4560 | 4510 | 721 | 5.88 | 3.33 |
| CNC(=O)c1ccccc1Nc1nc(Nc2cc(C)c(N3CCN(CCN4CCC(c5ccc(NC6CCC(=O)NC6=O)cc5)CC4)CC3)cc2OC)ncc1Cl (centres unmarked) [Compound T-021] | 0.1 to 1 | 70 to 100 | 0.1 to 1 | 70 to 100 | > 8.00 | 7.00 to 8.00 | 6.00 to 7.00 | – | – | – | – | – | – |
| COc1cc(N2CCN(C(=O)CN3CCC(c4ccc(NC5CCC(=O)NC5=O)cc4)CC3)CC2)ccc1Nc1ncc(Cl)c(Nc2ccccc2C(C)=O)n1 (centres unmarked) [Control Compound 1, reference compound] | – | – | – | – | – | – | – | 3.47 | 2090 | 2060 | 227 | 7.32 | 5.33 |
| CCc1cc(Nc2ncc(Cl)c(Nc3ccccc3C(=O)NC)n2)c(OC)cc1N1CCN(C(=O)CN2CCC(c3ccc4c(N5CCC(=O)NC5=O)nn(C)c4c3)C(F)(F)C2)CC1 (centres unmarked) [Compound T-013] | ≤ 0.01 | 70 to 100 | 0.01 to 0.1 | 70 to 100 | – | – | – | 3.09 | 6730 | 6690 | 899 | 6.27 | 4 |
| CCc1cc(Nc2ncc(Cl)c(Nc3ccccc3C(=O)NC)n2)c(OC)cc1N1CCN(C(=O)CN2CCC(c3ccc(NC4CCC(=O)NC4=O)cc3)CC2)[C@@H](C)C1 (some centres unmarked) [Compound T-078] | – | – | – | – | – | – | – | 5.45 | 10200 | 8600 | 714 | 9.06 | 6 |
| CCc1cc(Nc2ncc(Cl)c(Nc3ccccc3C(=O)NC)n2)c(OC)cc1N1CCN(C(=O)CN2CCN(c3ccc4c(N5CCC(=O)NC5=O)nn(C)c4c3)CC2)CC1 [Compound T-045] | – | – | – | – | 6.00 to 7.00 | 6.00 to 7.00 | 6.00 to 7.00 | – | – | – | – | – | – |
| C=Cc1cc(Nc2ncc(Cl)c(Nc3ccccc3C(=O)NC)n2)c(OC)cc1N1CCN(C(=O)CN2CCC(c3ccc(NC4CCC(=O)NC4=O)cc3)CC2)CC1 (centres unmarked) [Compound T-003] | 0.01 to 0.1 | 70 to 100 | 0.01 to 0.1 | 70 to 100 | 7.00 to 8.00 | 7.00 to 8.00 | 6.00 to 7.00 | – | – | – | – | – | – |
| CNC(=O)c1ccccc1Nc1nc(Nc2ccc(N3CCN(C(=O)CN4CCC(c5ccc6c(N7CCC(=O)NC7=O)nn(C)c6c5)C(F)(F)C4)CC3)cc2OC)ncc1Cl (centres unmarked) [Compound T-047] | – | – | – | – | 7.00 to 8.00 | 6.00 to 7.00 | 6.00 to 7.00 | – | – | – | – | – | – |
| COc1cc(N2CCN(C(=O)CN3CCC(c4ccc(NC5CCC(=O)NC5=O)cc4)CC3)CC2)ccc1Nc1ncc(Cl)c(Nc2ccccc2-c2ncc[nH]2)n1 (centres unmarked) [Compound T-011] | 0.1 to 1 | 50 to 70 | – | – | 7.00 to 8.00 | 6.00 to 7.00 | 6.00 to 7.00 | – | – | – | – | – | – |
| CCc1cc(Nc2ncc(Cl)c(Nc3ccccc3C(=O)NC)n2)c(OC)cc1N1CCN(C(=O)CN2CCC(c3ccc(NC4CCC(=O)NC4=O)cc3)CC2)[C@H](C)C1 (some centres unmarked) [Compound T-079] | – | – | – | – | 7.00 to 8.00 | 6.00 to 7.00 | 6.00 to 7.00 | 4.02 | 7990 | 7720 | 673 | 4.67 | 4.67 |
| CCc1cc(Nc2ncc(Cl)c(Nc3ccccc3C(=O)NC)n2)c(OC)cc1N1CCN(C(=O)CN2CCC(c3ccc(NC4CCC(=O)NC4=O)cc3C(F)(F)F)CC2)CC1 (centres unmarked) [Compound T-074] | – | – | – | – | – | – | – | 7.97 | 20200 | 16900 | 1120 | 9.66 | 5.33 |
| COc1cc(N2CCN(C(=O)CN3CCC(c4ccc(NC5CCC(=O)NC5=O)cc4)CC3)CC2)ccc1Nc1ncc(Cl)c(Nc2ccccc2-n2ccnn2)n1 (centres unmarked) [Compound T-007] | 0.1 to 1 | 70 to 100 | – | – | 7.00 to 8.00 | 6.00 to 7.00 | 6.00 to 7.00 | – | – | – | – | – | – |
| CCc1cc(Nc2ncc(Cl)c(Nc3ccccc3C(=O)NC)n2)c(OC)cc1N1CCN(C(=O)CN2CCC(c3ccc(NC4CCC(=O)NC4=O)cc3C)CC2)CC1 (centres unmarked) [Compound T-090] | 0.01 to 0.1 | 70 to 100 | 0.1 to 1 | 70 to 100 | – | – | – | – | – | – | – | – | – |
| CCc1cc(Nc2ncc(Cl)c(Nc3ccccc3C(=O)NC)n2)c(OC)cc1N1CCN(C(=O)CN2CCC(c3ccc4c(N5CCC(=O)NC5=O)nn(C)c4c3)CC2)CC1 [Compound T-043] | – | – | – | – | > 8.00 | 7.00 to 8.00 | 6.00 to 7.00 | – | – | – | – | – | – |
| CNC(=O)c1ccccc1Nc1nc(Nc2cc(C)c(N3CCN(C(=O)CC4(O)CCN(c5ccc6c(N7CCC(=O)NC7=O)nn(C)c6c5)CC4)CC3)cc2OC)ncc1Cl [Compound T-086] | – | – | – | – | 6.00 to 7.00 | 6.00 to 7.00 | 6.00 to 7.00 | – | – | – | – | – | – |
